Source: US20250333418A1, “PURINE COMPOUNDS, COMPOSITIONS COMPRISING THEM AND USES THEREOF” (Novo Nordisk A/S, priority 2022, published 2025)

How the values were obtained:
human CB1 receptor [1] = molecular target: T1, human CB1 receptor (Homo sapiens, UniProt P21554); assay: bioSensAll GAPL-Gi2 BRET biosensor assay in HEK293 cells transfected with hCB1; test compound added before EC75-80 of agonist CP55,940 (0.1 nM); type: cell-based; details: vs CP55,940 0.1 nM (EC75-80), read-out: CB1 wt Gi2 IC50
T1 construct: expressed in transfected cells; host or cells: HEK293
T1 sequence (P21554 whole entry): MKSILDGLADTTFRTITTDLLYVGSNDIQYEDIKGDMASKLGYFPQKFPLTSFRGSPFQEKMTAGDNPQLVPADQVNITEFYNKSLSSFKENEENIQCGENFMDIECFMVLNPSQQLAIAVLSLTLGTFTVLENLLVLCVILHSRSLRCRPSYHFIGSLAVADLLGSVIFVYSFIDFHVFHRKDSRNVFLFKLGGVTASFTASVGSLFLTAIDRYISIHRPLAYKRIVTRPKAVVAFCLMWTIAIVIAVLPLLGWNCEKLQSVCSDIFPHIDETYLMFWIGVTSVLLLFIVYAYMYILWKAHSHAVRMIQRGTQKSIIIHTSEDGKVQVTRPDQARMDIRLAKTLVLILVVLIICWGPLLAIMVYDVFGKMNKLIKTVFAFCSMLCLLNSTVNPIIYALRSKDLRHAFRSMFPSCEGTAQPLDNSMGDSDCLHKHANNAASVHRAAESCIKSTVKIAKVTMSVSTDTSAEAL
In short: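 Test compounds at 12 doses up to 600 nM preceded a 0.1 nM CP55,940 challenge in hCB1/GAPL-Gi2 HEK293 cells. After overnight 37° C incubation, methoxy e-coelenterazine (2 µM final) was added and the 515/400 nm BRET ratio normalized to positive and negative controls.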

human CB1 receptor [2] = molecular target: T1, human CB1 receptor; assay: bioSensAll β-arrestin2 plasma membrane translocation (+GRK2) BRET biosensor assay in HEK293 cells transfected with hCB1; test compound added before EC75-80 of agonist CP55,940 (100 nM); type: cell-based; details: βArrestin2 (+GRK2) BRET biosensor, vs CP55,940 100 nM (EC75-80), read-out: CB1 wt βarr2 IC50
In short: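 Antagonist mode: compound at 12 concentrations up to 600 nM, then 100 nM CP55,940 3–5 min later, on hCB1-transfected HEK293 cells carrying the β-arrestin2 plasma-membrane biosensor plus GRK2. After overnight 37 °C incubation, 515/400 nm BRET ratio measured with 2 µM methoxy e-CTZ and standardized against positive/negative controls.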

Structure (SMILES)	IC50 (human CB1 receptor [1]) [nM]	IC50 (human CB1 receptor [2]) [nM]
CC1(C(N)=O)CCN(c2nc(N3C[C@H]4CCC[C@H]4C3)nc3c2nc(-c2ccccc2Cl)n3-c2ccc(Cl)cc2)CC1 [Compound 14, 1-[2-[(3aS,6aR)-3,3a,4,5,6,6a-hexahydro-1H-cyclopenta[c]pyrrol-2-yl]-8-(2-chlorophenyl)-9-(4-chlorophenyl)purin-6-yl]-4-methyl-piperidine-4-carboxamide]	6.5	34.5
CC(=O)NC(=N)Nc1nc(N2CCC(C)(C(N)=O)CC2)c2nc(-c3ccccc3Cl)n(-c3ccc(Cl)cc3)c2n1 [Compound 18, 1-[2-[(N-acetylcarbamimidoyl)amino]-8-(2-chlorophenyl)-9-(4-chlorophenyl)purin-6-yl]-4-methyl-piperidine-4-carboxamide]	3.73	11.3
CC1(C(N)=O)CCN(c2nc(N3C[C@H]4C[C@H]4C3)nc3c2nc(-c2ccccc2Cl)n3-c2ccc(Cl)cc2)CC1 [Compound 15, 1-[2-[(1R,5S)-3-azabicyclo[3.1.0]hexan-3-yl]-8-(2-chlorophenyl)-9-(4-chlorophenyl)purin-6-yl]-4-methyl-piperidine-4-carboxamide]	1.29	8.03
CC1(C(N)=O)CCN(c2nc(N3CC[C@H](O)C3)nc3c2nc(-c2ccccc2Cl)n3-c2ccc(Cl)cc2)CC1 [Compound 94, 1-[8-(2-chlorophenyl)-9-(4-chlorophenyl)-2-[(3S)-3-hydroxypyrrolidin-1-yl]purin-6-yl]-4-methyl-piperidine-4-carboxamide]	0.82	2.41
CC(C)(O)CNc1nc(N2CCC(C)(C(N)=O)CC2)c2nc(-c3ccccc3Cl)n(-c3ccc(Cl)cc3)c2n1 [Compound 85, 1-[8-(2-chlorophenyl)-9-(4-chlorophenyl)-2-[(2-hydroxy-2-methyl-propyl)amino]purin-6-yl]-4-methyl-piperidine-4-carboxamide]	0.754	6.76
CN(CCO)c1nc(N2CCC(C(F)(F)F)CC2)c2nc(-c3ccccc3Cl)n(-c3ccc(Cl)cc3)c2n1 [Compound 161, 1-[[8-(2-chlorophenyl)-9-(4-chlorophenyl)-6-[4-(trifluoromethyl)-1-piperidyl]purin-2-yl]-methyl-amino]-ethan-2-ol]	0.95	1.53
CCOC1(C(N)=O)CCCN(c2nc(OCC(C)(C)O)nc3c2nc(-c2ccccc2Cl)n3-c2ccc(Cl)cc2)C1 (single isomer, unassigned) [Compound 216]	1.77	8.61
C[C@H]1COCCN1c1nc(OCC(C)(C)O)nc2c1nc(-c1ccccc1Cl)n2-c1ccc(Cl)cc1 [Compound 211]	0.943	6.86
Cc1cnn(-c2nc(N3CCC(C)(C(N)=O)CC3)c3nc(-c4ccccc4Cl)n(-c4ccc(Cl)cc4)c3n2)c1 [Compound 3, 1-[8-(2-chlorophenyl)-9-(4-chlorophenyl)-2-(4-methylpyrazol-1-yl)purin-6-yl]-4-methyl-piperidine-4-carboxamide]	1.38	12.2
COC1(C)CN(c2nc(OCC(C)(C)O)nc3c2nc(-c2ccc(C#N)nc2)n3-c2ccc(Cl)cc2)C1 [Compound 114, 5-[9-(4-chlorophenyl)-2-(2-hydroxy-2-methyl-propoxy)-6-(3-methoxy-3-methyl-azetidin-1-yl)purin-8-yl]pyridine-2-carbonitrile]	3.87	14.1
CC1(C(N)=O)CCN(c2nc(N3CC[C@@](C)(O)C3)nc3c2nc(-c2ccccc2Cl)n3-c2ccc(Cl)cc2)CC1 [Compound 223]	0.916	2.8
CC1(C(N)=O)CCN(c2nc(-n3cnc(CO)c3)nc3c2nc(-c2ccccc2Cl)n3-c2ccc(Cl)cc2)CC1 [Compound 46, 1-[8-(2-chlorophenyl)-9-(4-chlorophenyl)-2-[4-(hydroxymethyl)imidazol-1-yl]purin-6-yl]-4-methyl-piperidine-4-carboxamide]	1.82	9.64
CN(CC1(C)COC1)c1nc(-c2ccc(C(F)(F)F)nc2)c2nc(-c3ccccc3Cl)n(-c3ccc(Cl)cc3)c2n1 [Compound 126]	8.07	20.7
FC(F)(F)C1CCN(c2nc(OCCNCc3ccccc3)nc3c2nc(-c2ccccc2Cl)n3-c2ccc(Cl)cc2)CC1 [Compound 62, N-benzyl-2-[8-(2-chlorophenyl)-9-(4-chlorophenyl)-6-[4-(trifluoromethyl)-1-piperidyl]purin-2-yl]oxy-ethanamine]	6.14	7.62
CCNC1(C(N)=O)CCN(c2nc(C(N)=O)nc3c2nc(-c2ccccc2Cl)n3-c2ccc(Cl)cc2)CC1 [Compound 147, 6-(4-carbamoyl-4-(ethylamino)piperidin-1-yl)-8-(2-chlorophenyl)-9-(4-chlorophenyl)-9H-purine-2-carboxamide]	4.1	88.8
CC(C)(O)COc1nc(N2CCC(C)(C(N)=O)CC2)c2nc(-c3ccccc3Cl)n(-c3ccc(Cl)cc3)c2n1 [Compound 9, 1-[8-(2-chlorophenyl)-9-(4-chlorophenyl)-2-(2-hydroxy-2-methyl-propoxy)purin-6-yl]-4-methyl-piperidine-4-carboxamide]	0.398	2.92
CC1(C(N)=O)CCN(c2nc(-c3cc[nH]n3)nc3c2nc(-c2ccccc2Cl)n3-c2ccc(Cl)cc2)CC1 [Compound 44]	2.1	10
CC(C)(O)COc1nc(N2CCS(=O)(=O)CC2)c2nc(-c3ccccc3Cl)n(-c3ccc(Cl)cc3)c2n1 [Compound 209]	1.34	14.7
CO[C@H]1CCN(c2nc(N3CCC(C)(C(N)=O)CC3)c3nc(-c4ccccc4Cl)n(-c4ccc(Cl)cc4)c3n2)C1 [Compound 92, 1-[8-(2-chlorophenyl)-9-(4-chlorophenyl)-2-[(3S)-3-methoxypyrrolidin-1-yl]purin-6-yl]-4-methyl-piperidine-4-carboxamide]	1.71	7.93
CC(C)OC1(C(N)=O)CCN(c2nc(OCC(C)(C)O)nc3c2nc(-c2ccc(C#N)nc2)n3-c2ccc(Cl)cc2)CC1 [Compound 135]	2.3	11.7
N#Cc1ccc(-c2nc3c(N4CC(C(N)=O)C4)nc(N4CCC[C@H]4CO)nc3n2-c2ccc(Cl)cc2)cn1 [Compound 140]	1.22	8.69
CC(C)Oc1nc(OC[C@H](C)O)nc2c1nc(-c1ccccc1Cl)n2-c1ccc(Cl)cc1 [Compound 101]	1.53	16
CC(C)(O)COc1nc(N2CC(C)(C(N)=O)C2)c2nc(-c3ccc(C#N)nc3)n(-c3ccc(Cl)cc3)c2n1 [Compound 138]	34.1	> 5000
CC(C)(O)COc1nc(N2CCC(C)(C(N)=O)CC2)c2nc(-c3ccccc3Cl)n(-c3ccccc3)c2n1 [Compound 95, 1-[8-(2-chlorophenyl)-2-(2-hydroxy-2-methyl-propoxy)-9-phenyl-purin-6-yl]-4-methyl-piperidine-4-carboxamide]	13	72.4
CN(CC(C)(C)O)c1nc(-c2ccc(C(F)(F)F)nc2)c2nc(-c3ccccc3Cl)n(-c3ccc(Cl)cc3)c2n1 [Compound 124]	3.23	12.1
CC1(C(N)=O)CCN(c2nc(NCCS(C)(=O)=O)nc3c2nc(-c2ccccc2Cl)n3-c2ccc(Cl)cc2)CC1 [Compound 11, 1-[8-(2-chlorophenyl)-9-(4-chlorophenyl)-2-(2-methylsulfonylethylamino)purin-6-yl]-4-methyl-piperidine-4-carboxamide]	2.01	30.1
